ChEMBL document CHEMBL4837249, “Discovery of Potent Antiallergic Agents Based on an o-Aminopyridinyl Alkynyl Scaffold” (J Med Chem, 2021)

What was measured:
[1] = target: T1, Tyrosine-protein kinase Blk (Homo sapiens, UniProt P51451); assay: Inhibition of human full length recombinant BLK at 5 nM by radiometric scintillation counting analysis relative to control
[2] = target: T2, Cytoplasmic tyrosine-protein kinase BMX (Homo sapiens) (UniProt P51813); assay: Inhibition of human full length recombinant Bmx at 5 nM by radiometric scintillation counting analysis relative to control
T2 sequence (whole entry): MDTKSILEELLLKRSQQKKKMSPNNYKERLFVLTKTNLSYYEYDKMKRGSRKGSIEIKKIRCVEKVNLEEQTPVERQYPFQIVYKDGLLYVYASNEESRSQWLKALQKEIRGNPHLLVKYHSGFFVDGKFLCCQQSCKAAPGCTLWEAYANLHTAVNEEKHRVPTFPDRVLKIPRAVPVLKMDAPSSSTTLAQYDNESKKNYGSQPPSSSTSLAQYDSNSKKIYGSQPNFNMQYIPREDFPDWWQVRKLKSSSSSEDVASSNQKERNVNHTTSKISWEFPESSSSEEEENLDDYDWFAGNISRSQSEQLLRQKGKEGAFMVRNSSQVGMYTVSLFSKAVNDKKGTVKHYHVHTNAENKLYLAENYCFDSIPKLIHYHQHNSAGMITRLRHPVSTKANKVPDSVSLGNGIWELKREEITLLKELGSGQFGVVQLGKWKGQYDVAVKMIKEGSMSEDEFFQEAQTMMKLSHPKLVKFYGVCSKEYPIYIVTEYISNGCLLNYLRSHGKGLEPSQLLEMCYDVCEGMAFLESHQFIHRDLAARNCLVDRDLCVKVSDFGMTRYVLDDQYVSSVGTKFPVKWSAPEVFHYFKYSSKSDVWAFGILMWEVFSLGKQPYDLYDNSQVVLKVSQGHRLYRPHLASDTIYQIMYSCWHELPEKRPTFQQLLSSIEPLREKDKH

[3] = target: T3, Tyrosine-protein kinase Fyn (Homo sapiens, UniProt P06241); assay: Inhibition of human recombinant Fyn (218 to end) at 5 nM incubated for 15 mins relative to control
T3 sequence (P06241 2-537 limits assumed): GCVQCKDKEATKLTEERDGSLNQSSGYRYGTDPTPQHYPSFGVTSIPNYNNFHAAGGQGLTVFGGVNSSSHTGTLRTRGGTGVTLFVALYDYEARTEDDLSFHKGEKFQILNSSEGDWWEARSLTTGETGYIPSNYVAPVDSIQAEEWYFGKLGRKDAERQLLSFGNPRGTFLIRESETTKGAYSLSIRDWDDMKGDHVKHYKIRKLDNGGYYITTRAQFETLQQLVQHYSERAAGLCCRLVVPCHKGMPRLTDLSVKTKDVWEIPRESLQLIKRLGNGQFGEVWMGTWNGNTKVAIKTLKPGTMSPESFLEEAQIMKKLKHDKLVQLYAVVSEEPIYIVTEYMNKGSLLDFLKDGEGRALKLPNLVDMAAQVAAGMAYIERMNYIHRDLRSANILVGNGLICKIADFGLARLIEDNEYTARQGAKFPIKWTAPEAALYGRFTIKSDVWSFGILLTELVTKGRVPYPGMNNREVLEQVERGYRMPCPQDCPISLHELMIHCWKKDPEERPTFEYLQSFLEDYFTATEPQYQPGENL

[4] = target: T4, Tyrosine-protein kinase HCK (Homo sapiens, UniProt P08631); assay: Inhibition of human recombinant HCK (230 to 497) at 5 nM by radiometric scintillation counting analysis relative to control
T4 sequence (P08631 2-526 limits assumed): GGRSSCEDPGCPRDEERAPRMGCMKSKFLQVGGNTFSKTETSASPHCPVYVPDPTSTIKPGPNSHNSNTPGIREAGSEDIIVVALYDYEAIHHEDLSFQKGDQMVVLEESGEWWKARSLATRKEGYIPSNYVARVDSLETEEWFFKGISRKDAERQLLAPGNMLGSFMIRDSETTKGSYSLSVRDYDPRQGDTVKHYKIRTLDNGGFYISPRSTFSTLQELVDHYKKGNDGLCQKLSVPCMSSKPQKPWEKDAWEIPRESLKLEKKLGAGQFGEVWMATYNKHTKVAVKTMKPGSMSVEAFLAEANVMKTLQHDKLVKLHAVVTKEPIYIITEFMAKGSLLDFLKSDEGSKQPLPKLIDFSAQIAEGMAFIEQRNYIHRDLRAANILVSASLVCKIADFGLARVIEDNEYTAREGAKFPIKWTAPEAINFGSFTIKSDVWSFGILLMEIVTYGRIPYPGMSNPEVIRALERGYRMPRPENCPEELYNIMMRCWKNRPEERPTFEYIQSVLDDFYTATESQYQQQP

[5] = target: T5, Tyrosine-protein kinase ITK/TSK (Homo sapiens) (UniProt Q08881); assay: Inhibition of human recombinant ITK (352 to 617) at 5 nM by radiometric scintillation counting analysis relative to control
T5 sequence (whole entry): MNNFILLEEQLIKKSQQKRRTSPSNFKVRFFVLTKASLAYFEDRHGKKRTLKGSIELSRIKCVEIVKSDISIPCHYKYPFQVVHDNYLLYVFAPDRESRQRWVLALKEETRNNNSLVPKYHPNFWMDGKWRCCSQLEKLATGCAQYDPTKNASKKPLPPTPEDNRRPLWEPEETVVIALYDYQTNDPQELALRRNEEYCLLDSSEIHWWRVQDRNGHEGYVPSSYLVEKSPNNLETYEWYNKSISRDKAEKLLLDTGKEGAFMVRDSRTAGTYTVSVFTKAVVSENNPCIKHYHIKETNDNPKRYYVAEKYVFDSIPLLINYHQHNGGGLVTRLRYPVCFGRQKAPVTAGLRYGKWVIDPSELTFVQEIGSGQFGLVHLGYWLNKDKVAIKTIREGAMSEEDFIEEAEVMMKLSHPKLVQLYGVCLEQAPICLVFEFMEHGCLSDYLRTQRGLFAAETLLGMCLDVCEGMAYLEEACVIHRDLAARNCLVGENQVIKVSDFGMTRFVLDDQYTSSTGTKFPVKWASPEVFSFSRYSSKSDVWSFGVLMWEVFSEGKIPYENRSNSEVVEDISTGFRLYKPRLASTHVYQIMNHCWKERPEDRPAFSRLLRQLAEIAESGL

[6] = target: T6, Tyrosine-protein kinase Lyn (Homo sapiens, UniProt P07948); assay: Inhibition of human full length recombinant LYN at 5 nM by radiometric scintillation counting analysis relative to control
[7] = target: Platelet-derived growth factor receptor alpha (Homo sapiens) (UniProt P16234); assay: Inhibition of human recombinant PDGFRalpha (550 to end) at 5 nM by radiometric scintillation counting analysis relative to control
Platelet-derived growth factor receptor alpha (Homo sapiens), sequence (P16234 whole entry): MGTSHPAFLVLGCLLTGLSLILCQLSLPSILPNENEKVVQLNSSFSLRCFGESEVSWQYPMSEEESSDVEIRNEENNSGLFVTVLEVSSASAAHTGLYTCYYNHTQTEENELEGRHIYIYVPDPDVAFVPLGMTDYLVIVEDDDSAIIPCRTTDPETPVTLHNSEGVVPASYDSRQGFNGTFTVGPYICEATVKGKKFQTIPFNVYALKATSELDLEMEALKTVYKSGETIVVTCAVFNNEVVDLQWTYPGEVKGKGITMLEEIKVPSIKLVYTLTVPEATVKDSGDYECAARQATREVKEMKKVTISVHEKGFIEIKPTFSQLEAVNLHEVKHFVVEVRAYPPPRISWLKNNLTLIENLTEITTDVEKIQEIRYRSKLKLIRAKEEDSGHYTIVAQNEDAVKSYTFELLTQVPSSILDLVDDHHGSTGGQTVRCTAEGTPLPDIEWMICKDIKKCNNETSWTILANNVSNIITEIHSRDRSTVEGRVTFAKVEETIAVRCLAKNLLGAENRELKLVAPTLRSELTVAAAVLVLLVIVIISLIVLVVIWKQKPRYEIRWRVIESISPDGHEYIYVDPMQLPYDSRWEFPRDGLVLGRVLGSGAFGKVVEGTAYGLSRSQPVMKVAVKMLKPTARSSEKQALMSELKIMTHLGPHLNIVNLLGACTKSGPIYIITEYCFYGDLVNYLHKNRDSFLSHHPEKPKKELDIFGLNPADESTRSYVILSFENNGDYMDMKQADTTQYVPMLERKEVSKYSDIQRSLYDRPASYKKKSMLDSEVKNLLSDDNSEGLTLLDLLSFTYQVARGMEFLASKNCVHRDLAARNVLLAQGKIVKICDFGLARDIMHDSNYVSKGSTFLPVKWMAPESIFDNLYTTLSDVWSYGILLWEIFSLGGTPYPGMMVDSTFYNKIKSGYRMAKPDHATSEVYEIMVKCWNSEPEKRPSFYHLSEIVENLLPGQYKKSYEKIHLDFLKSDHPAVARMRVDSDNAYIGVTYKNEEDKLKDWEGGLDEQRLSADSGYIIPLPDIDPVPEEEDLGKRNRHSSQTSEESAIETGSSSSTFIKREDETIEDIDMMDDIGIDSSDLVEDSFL

[8] = target: Platelet-derived growth factor receptor beta (Homo sapiens) (UniProt P09619); assay: Inhibition of human recombinant PDGFRbeta (557 to end) at 5 nM by radiometric scintillation counting analysis relative to control
Platelet-derived growth factor receptor beta (Homo sapiens), sequence (P09619 whole entry): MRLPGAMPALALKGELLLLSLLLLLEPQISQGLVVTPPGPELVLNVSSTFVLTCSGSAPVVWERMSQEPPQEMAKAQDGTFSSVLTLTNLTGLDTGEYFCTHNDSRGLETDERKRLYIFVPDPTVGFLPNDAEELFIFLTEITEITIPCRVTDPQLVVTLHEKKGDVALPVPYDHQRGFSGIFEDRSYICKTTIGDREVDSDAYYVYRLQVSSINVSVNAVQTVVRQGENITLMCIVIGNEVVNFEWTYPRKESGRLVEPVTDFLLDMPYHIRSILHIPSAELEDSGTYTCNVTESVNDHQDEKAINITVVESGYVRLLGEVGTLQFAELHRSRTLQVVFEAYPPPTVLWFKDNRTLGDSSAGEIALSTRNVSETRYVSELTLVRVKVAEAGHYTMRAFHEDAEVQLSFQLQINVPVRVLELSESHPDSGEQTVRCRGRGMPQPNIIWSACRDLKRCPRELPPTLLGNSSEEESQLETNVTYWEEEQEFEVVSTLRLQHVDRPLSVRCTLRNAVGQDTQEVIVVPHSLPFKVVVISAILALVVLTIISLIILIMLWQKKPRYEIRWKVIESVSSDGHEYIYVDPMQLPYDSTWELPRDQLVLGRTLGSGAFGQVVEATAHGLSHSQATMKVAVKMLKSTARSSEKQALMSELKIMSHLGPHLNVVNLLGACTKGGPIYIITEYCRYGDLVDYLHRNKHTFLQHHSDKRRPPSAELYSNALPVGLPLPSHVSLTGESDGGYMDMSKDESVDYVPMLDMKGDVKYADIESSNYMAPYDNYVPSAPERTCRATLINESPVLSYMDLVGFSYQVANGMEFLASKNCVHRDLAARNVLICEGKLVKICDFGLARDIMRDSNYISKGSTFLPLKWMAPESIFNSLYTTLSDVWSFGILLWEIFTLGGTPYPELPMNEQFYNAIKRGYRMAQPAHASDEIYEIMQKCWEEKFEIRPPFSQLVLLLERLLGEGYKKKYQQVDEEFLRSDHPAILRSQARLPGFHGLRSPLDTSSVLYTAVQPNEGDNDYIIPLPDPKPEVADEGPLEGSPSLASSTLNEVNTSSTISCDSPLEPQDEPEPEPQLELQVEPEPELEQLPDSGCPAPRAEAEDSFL

[9] = target: T7, Proto-oncogene tyrosine-protein kinase Src (Homo sapiens, UniProt P12931); assay: Inhibition of human recombinant Src (1-530) at 5 nM by radiometric scintillation counting analysis relative to control
[10] = target: Tyrosine-protein kinase Srms (Homo sapiens, UniProt Q9H3Y6); assay: Inhibition of human SRMS at 5 nM by radiometric scintillation counting analysis relative to control
Tyrosine-protein kinase Srms, sequence (Q9H3Y6 whole entry): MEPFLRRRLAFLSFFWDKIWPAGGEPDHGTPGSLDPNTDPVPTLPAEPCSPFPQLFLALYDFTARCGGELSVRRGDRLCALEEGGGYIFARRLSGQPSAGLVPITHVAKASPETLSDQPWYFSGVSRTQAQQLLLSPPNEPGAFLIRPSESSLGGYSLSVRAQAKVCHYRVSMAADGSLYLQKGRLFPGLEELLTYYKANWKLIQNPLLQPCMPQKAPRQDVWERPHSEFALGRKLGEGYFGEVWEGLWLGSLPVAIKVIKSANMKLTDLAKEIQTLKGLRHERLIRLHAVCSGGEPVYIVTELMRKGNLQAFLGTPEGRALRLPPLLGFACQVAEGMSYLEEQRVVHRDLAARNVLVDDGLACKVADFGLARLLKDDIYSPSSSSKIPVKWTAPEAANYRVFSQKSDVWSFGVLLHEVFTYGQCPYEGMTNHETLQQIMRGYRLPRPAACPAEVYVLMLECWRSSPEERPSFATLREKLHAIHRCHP

[11] = target: Protein-tyrosine kinase 6 (Homo sapiens) (UniProt Q13882); assay: Inhibition of human recombinant BRK (174 to 734) at 50 nM by radiometric scintillation counting analysis relative to control
Protein-tyrosine kinase 6 (Homo sapiens), sequence (Q13882 whole entry, looked up): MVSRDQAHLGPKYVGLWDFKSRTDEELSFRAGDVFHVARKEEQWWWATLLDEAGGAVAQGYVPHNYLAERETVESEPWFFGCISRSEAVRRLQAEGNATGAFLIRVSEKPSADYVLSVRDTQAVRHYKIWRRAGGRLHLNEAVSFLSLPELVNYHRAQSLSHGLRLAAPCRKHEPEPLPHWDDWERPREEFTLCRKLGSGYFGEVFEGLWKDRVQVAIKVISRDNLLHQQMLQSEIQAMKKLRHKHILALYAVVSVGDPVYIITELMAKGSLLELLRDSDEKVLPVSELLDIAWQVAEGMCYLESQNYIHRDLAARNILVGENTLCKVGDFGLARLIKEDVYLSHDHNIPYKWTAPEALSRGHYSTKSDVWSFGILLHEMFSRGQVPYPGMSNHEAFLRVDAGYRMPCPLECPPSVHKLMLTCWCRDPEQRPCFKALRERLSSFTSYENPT

[12] = target: T3, Tyrosine-protein kinase Fyn; assay: Inhibition of human recombinant Fyn (218 to end) at 50 nM incubated for 15 mins relative to control
[13] = target: Platelet-derived growth factor receptor alpha (Homo sapiens) (UniProt P16234); assay: Inhibition of human recombinant PDGFRalpha (550 to end) at 50 nM by radiometric scintillation counting analysis relative to control
[14] = target: T1, Tyrosine-protein kinase Blk; assay: Inhibition of human full length recombinant BLK at 500 nM by radiometric scintillation counting analysis relative to control
[15] = target: T2, Cytoplasmic tyrosine-protein kinase BMX (Homo sapiens); assay: Inhibition of human full length recombinant Bmx at 500 nM by radiometric scintillation counting analysis relative to control
[16] = target: T4, Tyrosine-protein kinase HCK; assay: Inhibition of human recombinant HCK (230 to 497) at 500 nM by radiometric scintillation counting analysis relative to control
[17] = target: T5, Tyrosine-protein kinase ITK/TSK (Homo sapiens); assay: Inhibition of human recombinant ITK (352 to 617) at 500 nM by radiometric scintillation counting analysis relative to control
[18] = target: T6, Tyrosine-protein kinase Lyn; assay: Inhibition of human full length recombinant LYN at 500 nM by radiometric scintillation counting analysis relative to control
[19] = target: T7, Proto-oncogene tyrosine-protein kinase Src; assay: Inhibition of human recombinant Src (1-530) at 500 nM by radiometric scintillation counting analysis relative to control
[20] = target: Tyrosine-protein kinase Yes (Homo sapiens, UniProt P07947); assay: Inhibition of human full length recombinant Yes at 500 nM by radiometric scintillation counting analysis relative to control
Tyrosine-protein kinase Yes, sequence (P07947 2-543 limits assumed): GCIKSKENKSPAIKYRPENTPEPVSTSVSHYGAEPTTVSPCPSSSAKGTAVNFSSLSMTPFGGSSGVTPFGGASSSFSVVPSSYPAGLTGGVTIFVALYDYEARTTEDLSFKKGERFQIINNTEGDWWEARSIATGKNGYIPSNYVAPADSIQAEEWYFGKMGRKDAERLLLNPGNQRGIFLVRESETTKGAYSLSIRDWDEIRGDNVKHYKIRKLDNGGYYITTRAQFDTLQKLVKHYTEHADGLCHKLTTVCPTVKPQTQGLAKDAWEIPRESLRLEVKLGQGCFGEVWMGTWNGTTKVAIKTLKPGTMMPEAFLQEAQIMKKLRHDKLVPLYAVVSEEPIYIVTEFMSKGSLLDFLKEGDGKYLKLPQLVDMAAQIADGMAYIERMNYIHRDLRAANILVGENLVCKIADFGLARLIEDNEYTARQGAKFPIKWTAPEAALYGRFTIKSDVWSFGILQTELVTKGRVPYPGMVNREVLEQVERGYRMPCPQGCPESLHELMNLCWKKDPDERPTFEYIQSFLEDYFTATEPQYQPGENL

[21] = target: RAC-alpha serine/threonine-protein kinase (Homo sapiens) (UniProt P31749); assay: Inhibition of human recombinant PKBalpha at 50 nM radiometric scintillation counting analysis relative to control

Compound | inhibition [1] [%] | inhibition [2] [%] | inhibition [3] [%] | inhibition [4] [%] | inhibition [5] [%] | inhibition [6] [%] | inhibition [7] [%] | inhibition [8] [%] | inhibition [9] [%] | inhibition [10] [%] | inhibition [11] [%] | inhibition [12] [%] | inhibition [13] [%] | inhibition [14] [%] | inhibition [15] [%] | inhibition [16] [%] | inhibition [17] [%] | inhibition [18] [%] | inhibition [19] [%] | inhibition [20] [%] | other results
Cc1ccc(C(=O)Nc2cc(C(F)(F)F)cc(C(F)(F)F)c2)cc1C#Cc1cc(-c2cnn(C)c2)cnc1N | 22 | 16 | 29 | 11 | -8 | 41 | 1 | 18 | -10 | 20 | 1 | 55 | 1 | 98 | 89 | 97 | 2 | 96 | 92 | 98 | inhibition [21]: 2%
Cc1ccc(C(=O)Nc2ccc(OC(F)(F)F)cc2)cc1C#Cc1cc(-c2cnn(C)c2)cnc1N | 21 | -6 | 21 | 68 | 0 | 96 | 7 | 1 | 71 | -1 | 52 | 81 | 32 | 99 | 20 | 93 | -4 | 99 | 96 | 94 | inhibition [21]: 2%
Cc1ccc(C(=O)Nc2ccc(Cl)cc2Cl)cc1C#Cc1cc(-c2cnn(C)c2)cnc1N | 7 | 21 | 2 | 1 | -5 | 19 | -6 | 12 | 4 | 7 | 39 | 43 | 21 | 50 | 23 | 89 | 19 | 105 | 79 | 39 | inhibition [21]: 7%
